Test results from US9469650B2, “Melampomagnolide B derivatives” (BOARD OF TRUSTEES OF THE UNIVERSITY OF ARKANSAS, priority 2013, dated 2016).

Columns and labels:
SK-OV-3 = test: panel of 60 human tumor cell lines, growth inhibition (Ovarian Cancer); conditions: SK-OV-3
U251 = test: panel of 60 human tumor cell lines, growth inhibition (CNS Cancer); conditions: U251
HS 578T = test: panel of 60 human tumor cell lines, growth inhibition (Breast Cancer); conditions: HS 578T
NCI-H23 = test: panel of 60 human tumor cell lines, growth inhibition (Non-Small Cell Lung Cancer); conditions: NCI-H23
786-0 = test: panel of 60 human tumor cell lines, growth inhibition (Renal Cancer); conditions: 786-0
SF-295 = test: panel of 60 human tumor cell lines, growth inhibition (CNS Cancer); conditions: SF-295
HT29 = test: panel of 60 human tumor cell lines, growth inhibition (Colon Cancer); conditions: HT29
NCI-H226 = test: panel of 60 human tumor cell lines, growth inhibition (Non-Small Cell Lung Cancer); conditions: NCI-H226
NCI-H460 = test: as above; conditions: NCI-H460
ACHN = test: panel of 60 human tumor cell lines, growth inhibition (Renal Cancer)

With `C=C1C(=O)O[C@H]2[C@H]1CC/C(COC(=O)N1CCC(F)(F)CC1)=C\CC[C@@]1(C)O[C@@H]21` [JVM 2-66] the GI50 (SK-OV-3) was 16.2 µM, the TGI (SK-OV-3) was 3.22E−5 and the “Percent Growth” value (SK-OV-3; Log10 Concentration −4.0) was −83%. The “Percent Growth” value (SK-OV-3; Log10 Concentration −5.0) was 85%, the “Percent Growth” value (SK-OV-3; Log10 Concentration −6.0) was 100% and the “Percent Growth” value (SK-OV-3; Log10 Concentration −7.0) was 92%. The “Percent Growth” value (SK-OV-3; Log10 Concentration −8.0) was 100%, the TGI (U251) was 2.66E−5 and the “Percent Growth” value (U251; Log10 Concentration −4.0) was −99%. For the same molecule, the “Percent Growth” value (U251; Log10 Concentration −5.0) was 73%, the “Percent Growth” value (U251; Log10 Concentration −6.0) was 92% and the “Percent Growth” value (U251; Log10 Concentration −7.0) was 96%. The “Percent Growth” value (U251; Log10 Concentration −8.0) was 96%, the GI50 (HS 578T) was 13.5 µM and the TGI (HS 578T) was 7.06E−5. The “Percent Growth” value (HS 578T; Log10 Concentration −4.0) was −10%, the “Percent Growth” value (HS 578T; Log10 Concentration −5.0) was 59% and the “Percent Growth” value (HS 578T; Log10 Concentration −6.0) was 89%. For the same molecule, the “Percent Growth” value (HS 578T; Log10 Concentration −7.0) was 93%, the “Percent Growth” value (HS 578T; Log10 Concentration −8.0) was 93% and the GI50 (NCI-H23) was 2.59 µM. For the same molecule, the TGI (NCI-H23) was 8.51E−6, the “Percent Growth” value (NCI-H23; Log10 Concentration −4.0) was −70% and the “Percent Growth” value (NCI-H23; Log10 Concentration −5.0) was −7%. For the same molecule, the “Percent Growth” value (NCI-H23; Log10 Concentration −6.0) was 98%, the “Percent Growth” value (NCI-H23; Log10 Concentration −7.0) was 96% and the “Percent Growth” value (NCI-H23; Log10 Concentration −8.0) was 93%. The GI50 (786-0) was 3.67 µM, the TGI (786-0) was 1.50E−5 and the “Percent Growth” value (786-0; Log10 Concentration −4.0) was −81%. The “Percent Growth” value (786-0; Log10 Concentration −5.0) was 17%, the “Percent Growth” value (786-0; Log10 Concentration −6.0) was 93% and the “Percent Growth” value (786-0; Log10 Concentration −7.0) was 91%. For the same molecule, the “Percent Growth” value (786-0; Log10 Concentration −8.0) was 97%, the GI50 (SF-295) was 12 µM and the TGI (SF-295) was 2.49E−5. For the same molecule, the “Percent Growth” value (SF-295; Log10 Concentration −4.0) was −96%, the “Percent Growth” value (SF-295; Log10 Concentration −5.0) was 63% and the “Percent Growth” value (SF-295; Log10 Concentration −6.0) was 91%. The “Percent Growth” value (SF-295; Log10 Concentration −7.0) was 91%, the “Percent Growth” value (SF-295; Log10 Concentration −8.0) was 95% and the GI50 (HT29) was 3.3 µM. The TGI (HT29) was 1.05E−5, the “Percent Growth” value (HT29; Log10 Concentration −4.0) was −84% and the “Percent Growth” value (HT29; Log10 Concentration −5.0) was 2%. For the same molecule, the “Percent Growth” value (HT29; Log10 Concentration −6.0) was 102%, the “Percent Growth” value (HT29; Log10 Concentration −7.0) was 101% and the “Percent Growth” value (HT29; Log10 Concentration −8.0) was 97%. For the same molecule, the TGI (NCI-H226) was 4.35E−6, the “Percent Growth” value (NCI-H226; Log10 Concentration −4.0) was −71% and the “Percent Growth” value (NCI-H226; Log10 Concentration −5.0) was −49%. For the same molecule, the “Percent Growth” value (NCI-H226; Log10 Concentration −6.0) was 87%, the “Percent Growth” value (NCI-H226; Log10 Concentration −7.0) was 90% and the “Percent Growth” value (NCI-H226; Log10 Concentration −8.0) was 102%. For the same molecule, the GI50 (NCI-H460) was 13.3 µM, the TGI (NCI-H460) was 3.10E−5 and the “Percent Growth” value (NCI-H460; Log10 Concentration −4.0) was −69%. For the same molecule, the “Percent Growth” value (NCI-H460; Log10 Concentration −5.0) was 67%, the “Percent Growth” value (NCI-H460; Log10 Concentration −6.0) was 99% and the “Percent Growth” value (NCI-H460; Log10 Concentration −7.0) was 101%. For the same molecule, the “Percent Growth” value (NCI-H460; Log10 Concentration −8.0) was 100%, the GI50 (ACHN) was 1.79 µM and the TGI (ACHN) was 5.68E−6. For the same molecule, the “Percent Growth” value (ACHN; Log10 Concentration −4.0) was −83%, the “Percent Growth” value (ACHN; Log10 Concentration −5.0) was −25% and the “Percent Growth” value (ACHN; Log10 Concentration −6.0) was 75%.
